Data published in patent publication US9474780B2, “GIP and GLP-1 co-agonist compounds” (Eli Lilly and Company, priority 2015, dated 2016).
Marks after values point to notes of the source that are not given here.

Legend:
[1] = Rat in vivo insulin secretion following intravenous glucose (IVGTT); details: s.c. 16 hour prior to glucose
Method in brief: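 Male Wistar rats dosed s.c. with vehicle or 0.1–10 nmol/kg 16 h before glucose, then fasted and anesthetized with pentobarbital i.p. (65 mg/kg). Glucose ([…]) given after a time-zero bleed; plasma sampled at 2, 4, 6, 10, 20, 30 min. Glucose measured by analyzer, insulin by MSD immunoassay.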

[2] = Weight loss, body composition and hepatic steatosis in DIO mice; type: in vivo, mouse; details: for Blood Glucose: Day 15
Method in brief: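 C57/BL6 DIO mice, individually housed at 24 °C, 12 h light/dark, food and water ad libitum; daily body weight and food intake, weight change versus pre-dose value of the same animal. Day 15: tail-vein glucose, then liver triglycerides and plasma cholesterol; ANOVA with Dunnett's test, ED50 for weight loss by non-linear fit.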

[3] = Dose potency projection: rat ivGTT exposure response Emax model; type: in vivo; details: single SC dose, ivGTT 16 hours post-dosage
Method: The intravenous glucose tolerance test (ivGTT) in the rat is used to estimate relative potency of compounds of the present invention in comparison to semaglutide. […] Exposure is measured at the time of the ivGTT, and for exposure response modeling, the insulin AUC in response to the ivGTT is used as the primary endpoint. […] Both data sets are fit simultaneously and E0 and Emax values are constrained to be the same for both compounds. Only ED50 values are fit separately for the compounds.

[4] = Energy metabolism in DIO mice (indirect calorimetry); type: in vivo, mouse; details: SC every three days for 22 days, from week 2, semaglutide 30 nmol/kg
Method: The effects on energy metabolism in DIO mice for compounds of the present invention are evaluated in 26 week old C57/B16 DIO male mice, weighing 43-50 g. Mice are individually housed in a temperature-controlled (24° C.) facility with a 12 hour light/dark cycle (lights on 22:00), and with free access to food TD95217 (Teklad) and water. After 2 weeks acclimation to the facility, mice are randomized to treatment groups (n=6/group) based on body weight so each group has similar starting mean body weight. Animals are placed in a PhenoMaster/LabMaster calorimeter (TSE Systems, Chesterfield, Mo.) for 3 days of acclimation. Vehicle control (20 mM citrate buffer at pH 7.0, 10 ml/kg), compounds of the present invention, or a long-acting GLP1 analogue, semaglutide, (30 nmol/kg) are subcutaneously administered to ad libitum fed DIO mice 30-90 minutes prior to the onset of the dark cycle every three days for 22 days. Heat and respiratory quotient (RER) are measured by indirect calorimetry as described using an open-circuit calorimetry system. RER is the ratio of the volume of CO2 produced (Vco2) to the volume of O2 consumed (Vo2). Heat is calculated with full body weight considered: VO2=FlowML*(V1+V2)/N2Ref*Animal weight*100) VCO2=FlowML*dCO2/Animal weight*100) Heat=(CVO2*VO2+CVCO2*VCO2)/1000; where CVO2=3.941; CVCO2=1.106

[5] = Gastric emptying in DIO mice; type: in vivo, mouse; details: 30 nmol/kg SC, semi-liquid diet, 2 hours
Method: The effects on gastric emptying in DIO mice for compounds of the present invention are evaluated in 23 week old diet-induced obese (DIO) male mice (Harlan). The mice are fasted for 16-17 hours. During the start of fasting period the mice are dosed subcutaneously with vehicle control (20 mM citrate buffer at pH 7.0); escalating doses of compounds of the present invention (3, 10, 30 and 100 nmol/kg), or a long-acting GLP1 analogue, semaglutide, (30 nmol/kg). The next day, mice are administered 0.5 ml (0.5 gram) of freshly prepared semi-liquid diet (2 minutes apart) by oral gavage. Water is removed at this time to prevent dilution of administered diet. Two hours after diet administration, mice are euthanized two minutes apart by CO2 gas. The stomach is removed while clamped at both cardiac and pyloric openings, then clamps removed and the full stomach weighed in a weigh boat. The stomach is then incised and contents removed. The stomach is washed and dried and re-weighed to assess food contents in stomach. The % gastric emptying equals 100×(1−(food remaining in stomach/food orally administered)).

[6] = Plasma corticosterone in Sprague Dawley rats; type: in vivo, rat
Method: Plasma corticosterone levels are evaluated using Sprague Dawley Rats (Harlan, Indianapolis), weighing approximately 220 g and acclimated for at least 72 hours before handling. The rats are then dosed with vehicle (20 mM citrate buffer, pH 7), semaglutide (10 nmol/kg), or compounds of the present invention at 3, 10 or 30 nmol/kg s.c. with 8 rats per dose group. The rats are decapitated 16 hours later. Blood is collected into EDTA tubes on ice, then centrifuged 5 minutes at 8000 RPM in a Eppendorf 5402 tabletop centrifuge. Plasma is stored at −80° C. until analysis.
For corticosterone analysis, corticosterone standards (Sigma, 27840) are prepared by serial dilutions in HPLC-grade methanol, H2O and the addition of 5% charcoal stripped rat serum (Bioreclamation, RATSRM-STRPD-HEV). Rat plasma samples are diluted with PBS, precipitated with cold methanol, incubated for 20 minutes at −20° C., and then centrifuged at 14,000 RPM with an Eppendorf 5417R at 4° C. Supernatants are extracted, evaporated under a stream of N2 gas, and reconstituted in MeOH/H2O (1:1) solution.

## semaglutide [reference compound]
[1]
  % max increase of insulin AUC: 231 +/− 13%
  ED50 for insulin, rat IVGTT: 0.70 nmol/kg
[2]; Table 8, 10 nmol/kg
  % Change from starting body weight: −12.36 ± 1.00 %
  % Change from starting fat mass: −18.21 ± 2.24 %
[2]; Table 8, 30 nmol/kg
  % Change from starting body weight: −14.20 ± 1.01 %
  % Change from starting fat mass: −21.90 ± 2.07 %
[2]; Table 8, 100 nmol/kg
  % Change from starting body weight: −19.30 ± 1.38 %
  % Change from starting fat mass: −33.51 ± 3.30 %
[2]; Table 9, 30 nmol/kg
  % Change from starting body weight: −17.03 ± 0.98 %
  % Change from starting fat mass: −35.94 ± 4.09 %
[2]; Table 11, 10 nmol/kg
  Plasma Cholesterol: 226.8 ± 13.86 mg/dL
  Plasma Triglycerides: 27.36 ± 3.56 mg/dL
  Blood Glucose: 147.6 ± 6.13 mg/dL
[2]; Table 11, 30 nmol/kg
  Plasma Cholesterol: 229.8 ± 10.96 mg/dL
  Plasma Triglycerides: 27.9 ± 6.01 mg/dL
  Blood Glucose: 146.8 ± 8.43 mg/dL
[2]; Table 11, 100 nmol/kg
  Plasma Cholesterol: 218.4 ± 18.70 mg/dL
  Plasma Triglycerides: 36.46 ± 5.34 mg/dL
  Blood Glucose: 134.3 ± 9.22 mg/dL
[2]; Table 12, 30 nmol/kg
  Liver Triglycerides: 67.63 ± 23.40 mg/g tissue
  Plasma Cholesterol: 161.0 ± 13.92 mg/dL
  Blood Glucose: 136.3 ± 3.81 mg/dL
[3]
  ED50 (Emax model, insulin AUC in ivGTT): 0.6 ± 0.2 nmol/kg
[4]
  increase in metabolic rate compared to the control group: no effect on metabolic rate
[5]
  Percent Gastric Emptying: 30.56 +/− 7.53** %
[6]; 10 nmol/kg s.c., 16 hours
  Corticosterone, Mean: 274.57 ng/mL
[6]; Example 1 at 3, 10, 30 nmol/kg, semaglutide 10 nmol/kg
  increase in plasma corticosterone levels over control: approximately 4 ×
